Results: patent publication US6475996B1, “Use of a vector expressing DNA polymerase β as medicine” (Centre National De La Recherche Scientifique (CNRS), priority 1996, dated 2002)
Blank lines part the entries; values can stand above or below the compound they belong to.

How the values were obtained:
E. coli SC 18-12 = assay: Functionality check of pZHTkβ: survival of E. coli SC 18-12; assay type: cell-based; conditions: Zeocine 25 μg/ml
From the text: The functionality of the construct was checked using E. coli bacterial strains,
1—either by transforming the strain SC 18-12 for the expression of pol β,

DNA polymerase β = DNA polymerase β (Homo sapiens, UniProt P06746); conditions: in vitro, compared with dCMP (Copeland et al., 1992); cited from earlier work
pol β = molecular target: T1, pol β (Rattus norvegicus, UniProt P06766); assay: DNA replication test with extracts of pol β-transfected B16 cells; assay type: biochemical; conditions: extracts of B16 cells transfected with pUT-pol β
T1 construct: expressed in transfected cells; host or cells: B16 mouse melanoma cells transfected with pUT-pol β; cell extracts

Compound: Cc1c(N)nc([C@H](CC(N)=O)NC[C@H](N)C(N)=O)nc1C(=O)N[C@H](C(=O)N[C@H](C)[C@@H](O)[C@H](C)C(=O)N[C@H](C(=O)NCCC1=N[C@@H](c2nc(C(=O)NCCCCN=C(N)N)cs2)CS1)[C@@H](C)O)[C@@H](O[C@@H]1O[C@@H](CO)[C@@H](O)[C@H](O)[C@@H]1O[C@H]1O[C@H](CO)[C@@H](O)[C@H](OC(N)=O)[C@@H]1O)c1cnc[nH]1 [Zeocine]
Survival (%) (E. coli SC 18-12; SC 18-12/pZHTkβ): 97%
Survival (%) (E. coli SC 18-12; SC 18-12 non-transformed): 5%

Compound: Nc1ccn([C@H]2CC[C@@H](COP(=O)(O)O)O2)c(=O)n1 [ddCMP]
Efficacy of incorporation by DNA polymerase β (DNA polymerase β): comparable to that observed for the incorporation of the natural antagonist dCMP

In vitro incorporation into the G-rich nucleotide substrate (pol β): allowed an in vitro incorporation
Compound: Nc1ccn([C@H]2CC[C@@H](COP(=O)(O)OP(=O)(O)OP(=O)(O)O)O2)c(=O)n1 [triphosphorylated ddC]
